Assay results as given in ChEMBL document CHEMBL5143605, “Discovery of 4-phenylindolines containing a (5-cyanopyridin-3-yl)methoxy moiety as potent inhibitors of the PD-1/PD-L1 interaction” (Bioorg Med Chem Lett, 2022).

Each molecule was assayed against Programmed cell death protein 1/Programmed cell death 1 ligand 1 (Homo sapiens, UniProt Q15116+Q9NZQ7) (assay: Inhibition of Tag2-PD1/Tag1-PD-L1 (unknown origin) protein-protein interaction preincubated for 15 mins followed by addition of anti-Tag1-Eu3+ and anti-Tag2-XL665 and measured after 2 hrs by HTRF analysis).
Chain of Programmed cell death protein 1/Programmed cell death 1 ligand 1 (Q15116 whole entry): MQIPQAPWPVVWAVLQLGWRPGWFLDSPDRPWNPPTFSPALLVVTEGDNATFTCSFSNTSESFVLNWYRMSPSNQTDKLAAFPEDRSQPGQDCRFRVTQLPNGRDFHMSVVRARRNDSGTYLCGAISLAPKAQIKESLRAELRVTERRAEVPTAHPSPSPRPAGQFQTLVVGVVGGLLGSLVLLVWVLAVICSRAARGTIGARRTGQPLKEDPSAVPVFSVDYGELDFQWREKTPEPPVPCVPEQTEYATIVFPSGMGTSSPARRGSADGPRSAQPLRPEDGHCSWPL
Chain of Programmed cell death protein 1/Programmed cell death 1 ligand 1 (Q9NZQ7 whole entry): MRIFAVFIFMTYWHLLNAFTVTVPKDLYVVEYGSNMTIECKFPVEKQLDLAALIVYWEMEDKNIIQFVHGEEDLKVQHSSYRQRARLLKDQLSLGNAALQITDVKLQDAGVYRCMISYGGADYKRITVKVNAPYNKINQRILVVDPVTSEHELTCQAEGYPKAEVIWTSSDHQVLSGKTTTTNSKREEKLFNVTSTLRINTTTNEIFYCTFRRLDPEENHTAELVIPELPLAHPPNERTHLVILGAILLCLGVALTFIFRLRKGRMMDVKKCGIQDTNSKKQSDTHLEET
Format: protein-complex assay

SMILES	IC50 [µM]
CC(C)(CO)NCc1ccc(C(=O)N2CCc3c(-c4ccccc4)cccc32)cc1OCc1cncc(C#N)c1	0.116
N#Cc1cncc(COc2cc(C(=O)N3CCc4c(-c5ccccc5)cccc43)ccc2CN2CC[C@H](O)C2)c1	0.0746
CC(C)(CO)NCc1ccc(C(=O)N2CCc3c(-c4ccccc4)cccc32)cc1OCc1ccnc(C#N)c1	0.229
CC(=O)NCCNCc1ccc(C(=O)N2CCc3c(-c4ccccc4)cccc32)cc1OCc1ccnc(C#N)c1	0.308
N#Cc1cncc(COc2cc(C(=O)N3CCc4c(-c5ccccc5)cccc43)ccc2CN2CC[C@H](CO)C2)c1	0.128
COc1cccc(-c2cccc3c2CCN3C(=O)c2ccc(CNCCO)cc2)n1	> 5
O=C(c1ccc(CNCCO)cc1)N1CCc2c(-c3ccc4ocnc4c3)cccc21	0.192
N#Cc1cc(COc2cc(C(=O)N3CCc4c(-c5ccccc5)cccc43)ccc2CNCCO)ccn1	0.105
COc1cc(C(=O)N2CCc3c(-c4ccccc4)cccc32)ccc1CNCCO	0.161
O=C(c1ccc(CNCCO)cc1)N1CCc2c(-c3cnc4[nH]ccc4c3)cccc21	0.876
CC(C)(CO)NCc1ccc(S(=O)(=O)N2CCc3c(-c4ccccc4)cccc32)cc1	> 5
CC(=O)NCCNCc1ccc(S(=O)(=O)N2CCc3c(-c4ccccc4)cccc32)cc1	> 5
CC(=O)NCCNCc1ccc(C(=O)N2CCc3c(-c4ccccc4)cccc32)cc1OCc1cncc(C#N)c1	0.154
N#Cc1cncc(COc2cc(C(=O)N3CCc4c(-c5ccccc5)cccc43)ccc2CN2CC[C@@H](O)C2)c1	0.124
N#Cc1cncc(COc2cc(C(=O)N3CCc4c(-c5ccccc5)cccc43)ccc2CN2CCC[C@H]2C(=O)O)c1	0.626
N#Cc1cncc(COc2cc(C(=O)N3CCc4c(-c5ccccc5)cccc43)ccc2CN2CC[C@@H](CO)C2)c1	0.132
O=C(c1ccc(CNCCO)cc1)N1CCc2c(-c3cccc4[nH]ccc34)cccc21	0.635
N#Cc1cncc(COc2cc(C(=O)N3CCc4c(-c5ccccc5)cccc43)ccc2CNC2CCOCC2)c1	0.378
CN(CCO)Cc1ccc(C(=O)N2CCc3c(-c4ccccc4)cccc32)cc1OCc1cncc(C#N)c1	0.0601
COCCNCc1ccc(C(=O)N2CCc3c(-c4ccccc4)cccc32)cc1OCc1cncc(C#N)c1	0.251
N#Cc1cncc(COc2cc(C(=O)N3CCc4c(-c5ccccc5)cccc43)ccc2CN2CC[C@H](C(=O)O)C2)c1	0.0532
N#Cc1cncc(COc2cc(C(=O)N3CCc4c(-c5ccccc5)cccc43)ccc2CNCCO)c1	0.0873
O=C(c1ccc(CNCCO)cc1)N1CCc2c(-c3ccc4nccnc4c3)cccc21	> 5
O=C(c1ccc(CNCCO)cc1)N1CCc2c(-c3ccncc3)cccc21	> 5
